Read-outs that look alike come from different tables or passages of the source.
Columns and labels:
[1] = system: A2780 ovarian cancer cell line; experiment: Cytotoxicity, PrestoBlue assay, A2780; type: cell-based, human; details: read-out: IC50 (µM) after 72 h, A2780
Protocol: (§1) counterpart, A2780cis, were procured from the European Collection of Cell
(§2) (ThermoFisher, USA) base medium supplemented with 10% Foetal Bovine
(§3) Serum (FBS; Sigma, Germany) and 1% of Penicillin-Streptomycin
(§4) (ThermoFisher, USA). Additionally, A2780cis cell line was cultured in the
(§5) drug. The human embryonic kidney cell line, HEK293T, and HeLa cell line were
(§6) obtained from American Type Culture Collection (ATCC, USA) and were cultured
(§7) in DMEM GlutaMAX (ThermoFisher, USA) base medium, supplemented with
(§8) 10% FBS and 1% of Penicillin-Streptomycin. All cell lines were maintained in a
(§9) humidified incubator at37 °C and 5% CO2.
(§10) 4.2. Cytotoxicity studies
(§11) cells/mL (A2780cis and HEK293T) was dispensed into flat bottom 96-well plates
(§12) and allowed to attach overnight. On the next day, 10 mM stock solutions of the
(§13) tested compounds were prepared in DMSO, then diluted with media to the final
(§14) concentration range of 0 - 100 µM and applied to the cells; 0.1% DMSO final
(§15) solution and 10 µM final concentration gambogic acid were used as negative and
(§16) positive controls, respectively. After 72 h incubation in a humidified incubator
(§17) under 5% CO2 at 37 °C, PrestoBlue™ cell viability reagent (Cat. No. A13262,
(§18) Invitrogen, USA) was added to cultures at a 1:10 ratio according to the
(§19) manufacturer instructions, and samples were incubated for 1.5 h. Fluorescence
(§20) at 560/590 nm was detected with Tecan Infinite 500 microplate reader (Tecan,
(§21) Switzerland). Three wells were assessed for each concentration of the tested
(§22) compounds and three independent experiments were performed. Non-linear
(§23) regression and IC50 value calculation were performed in GraphPad Prism 9 using
(§24) the build-in function “Dose response- Inhibition”.

[2] = system: non-cancerous human embryonic kidney HEK293T cells; experiment: Cytotoxicity, PrestoBlue assay, HEK293T; type: cell-based; details: 72 h, read-out: IC50 (µM) after 72 h, HEK293T
Protocol: as §1, §2, §3, §4, §5, §6, §7, §8, §9, §10, §11, §12, §13, §14, §15, §16, §17, §18, §19, §20, §21, §22, §23, §24

[3] = system: A2780cis cells with acquired resistance to cisplatin; experiment: Cytotoxicity, PrestoBlue assay, A2780cis; type: cell-based, human; details: for IC50: 72 h, read-out: IC50 (µM) after 72 h, A2780cis; for Resistance index (RI): RI = IC50 A2780cis/IC50 A2780
Protocol: as §1, §2, §3, §4, §5, §6, §7, §8, §9, §10, §11, §12, §13, §14, §15, §16, §17, §18, §19, §20, §21, §22, §23, §24

[4] = n-octanol/water partition coefficient; type: physicochemical
Text: Resistance index (RI) ^a, and n-octanol/water partition coefficients (logPOW) | column: logPOW

[5] = system: DNA synthesis in HeLa cells; experiment: EdU incorporation assay, fluorescence cell microscopy; type: cell-based; details: for Degree of inhibition of DNA synthesis: 3 µM, 24 h, gemcitabine = 100%, DMSO = 0%
Text: The inhibitory effect of Pt1^Y and Pt2^Y (Y = NR, O, S) on DNA synthesis during cell proliferation was quantified in cellulo using an EdU incorporation assay and fluorescence cell microscopy (Fig. 6 and SI Fig. 12).[70] Gemcitabine, a clinically-approved DNA synthesis inhibitor,[71] was used as a positive control (100% inhibition), and the cells treated with an equivalent amount of DMSO served as a negative control (“untreated”, 0% inhibition). Cisplatin and transplatin were included as references. DNA synthesis was blocked to various degrees in the cells treated with the different platinum complexes. […]
4.4. EdU incorporation assay
EdU incorporation assay was performed using a Click-iT EdU Imaging kit
(C10086, Thermo Fisher, Switzerland) according to the manufacturer’s protocol.
HeLa cells were seeded into a black 96-well PhenoPlate with optically clear flat-bottom (Revity 6055302) at a concentration of 4000 cells per well. After 24 h, the cells were treated with the tested compounds Pt1Y and Pt2Y (Y = NR, O, S), […]
of the compounds in HeLA cells). Gemcitabine (1 and 3 µM) and an equal volume of DMSO were used as positive and negative control, respectively. Each condition was tested in triplicate. The assay was performed after an incubation of 24 h. The cells were additionally stained by Hoechst 33342 diluted in PBS with 3% BSA. The fluorescent signal was detected with the widefield INCell 2200 microscope (GE health care, USA) using a 10X/0.45 objective. The DAPI channel was used for Hoechst 33342 emitting blue (λex = 390/ 18 nm, λem = 432.5/ 48 nm), and the FITC channel for Edu-AlexaFluor-488 (λex = 475/ 28 nm, λem = 511.5/23 nm) emitting in green. For each well, 9 fields of view were captured. Image analysis was performed using CellProfiler (v4.2.5), CellProfiler Analyst (v3.0.4) and FIJI (v1.54k) software. Images were first pre -processed (correction for flat - field illumination using a Gaussian-based smoothing filter and rescaled for segmentation). All cells were segmented using the minimum cross -entropy thresholding method on an intermediate image composed of the addition of 2 channels imaged. For all cells, featur es of size, shape, and fluorescence intensities were extracted. Cells were then either classified directly as live or dead based on a combination of their size and EdU staining intensity or classified automatically as live or dead using a machine learning -based random forest classifier model in a multiparametric approach. The readout used is the average percentage of live or dead cells in each condition and the values are normalised to gemcitabine at 3 μM and DMSO (untreated) with the corresponding volume at […]

[6] = system: ovarian cancer cell lines (A2780 and A2780cis); experiment: Cytotoxicity stated jointly for both ovarian cancer cell lines
Protocol: as §1, §2, §3, §4, §5, §6, §7, §8, §9, §10, §11, §12, §13, §14, §15, §16, §17, §18, §19, §20, §21, §22, §23, §24

[7] = Homo sapiens, A2780, 72 h, PrestoBlue
[8] = Homo sapiens, HEK-293T, PrestoBlue
[9] = Homo sapiens, A2780cis, PrestoBlue

| SMILES | IC50 [1, 7] | IC50 [2, 8] | IC50 [3, 9] | IC50 ([1]; 72 h, PrestoBlue) | IC50 ([2]; PrestoBlue) | IC50 ([3]; PrestoBlue) | further results |
| --- | --- | --- | --- | --- | --- | --- | --- |
| Cn1cc[n+](C)c1 [1NMe·HI] | > 100 µM | > 100 µM | > 100 µM |  |  |  |  |
| C[n+]1ccoc1 [1O·HI] | 11.8 µM | 59.1 ± 16.6 µM | 39.8 ± 2.6 µM |  |  |  |  |
| C[n+]1ccsc1 [1S·HI] | > 100 µM | > 100 µM | > 100 µM |  |  |  |  |
| c1ccc(Cn2cc[n+](Cc3ccccc3)c2)cc1 [2NBn·HBr] | 37.4 µM | 51.1 ± 12.4 µM | 44.1 µM |  |  |  |  |
| c1ccc(C[n+]2ccoc2)cc1 [2O·HBr] | > 100 µM | > 100 µM | > 100 µM |  |  |  |  |
| c1ccc(C[n+]2ccsc2)cc1 [2S·HBr] | 58.6 µM | > 100 µM | 73.5 µM |  |  |  |  |
| CCn1c[n+](CC)c2ccccc21 [3NEt·HI] | > 100 µM | > 100 µM | > 100 µM |  |  |  |  |
| CC[n+]1coc2ccccc21 [3O·HI] | > 100 µM | > 100 µM | > 100 µM |  |  |  |  |
| CC[n+]1csc2ccccc21 [3S·HI] | > 100 µM | > 100 µM | > 100 µM |  |  |  |  |
| c1ccc(Cn2c[n+](Cc3ccccc3)c3ccccc32)cc1 [4NBn·HBr] | 15.2 ± 12.1 µM | 35.2 ± 26.3 µM | 24.4 ± 11.7 µM |  |  |  |  |
| c1ccc(C[n+]2c[se]c3ccccc32)cc1 [4Se·HBr] |  |  |  |  |  |  | IC50 ([1]; Homo sapiens, A2780, 72 h): 13.5 ± 5.9 µM; IC50 ([2]; Homo sapiens, HEK-293T): 20.5 ± 14.2 µM; IC50 ([3]; Homo sapiens, A2780cis): 28.4 ± 8 µM |
| c1ccc(C[n+]2csc3ccccc32)cc1 [4S·HBr] | 34.7 µM | 36.8 ± 19.3 µM | 37.9 ± 1.7 µM |  |  |  |  |
| CCn1[c]([Au-][I])[n+](CC)c2ccccc21 [Au3^NEt] |  |  |  | 0.6 ± 0.2 µM | 2.1 ± 0.6 µM | 2.7 ± 0.1 µM | logPOW ([4]; n-octanol/water): 1.6 ± 1.1; Resistance index (RI) [3]: 4.9 |
| CC[n+]1[c]([Au-][I])oc2ccccc21 [Au3^O] |  |  |  | 0.2 ± 0.2 µM | 1 ± 0.1 µM | 5 ± 2 µM | logPOW ([4]; n-octanol/water): 1.2 ± 0.4; logPOW ([4]; n-octanol/water, listed as Au3^S): 1.5 ± 0.1; logPOW ([4]; n-octanol/water, listed as Au3^Se): 1.4 ± 0.3; IC50 ([1]; 72 h, PrestoBlue, listed as Au3^S): 0.2 ± 0.1 µM; IC50 ([1]; 72 h, PrestoBlue, listed as Au3^Se): 0.1 ± 0.1 µM; IC50 ([2]; PrestoBlue, listed as Au3^S): 1.9 ± 0.3 µM; IC50 ([2]; PrestoBlue, listed as Au3^Se): 0.1 ± 0.1 µM; IC50 ([3]; PrestoBlue, listed as Au3^S): 6.4 ± 0.4 µM; IC50 ([3]; PrestoBlue, listed as Au3^Se): 0.2 ± 0.1 µM; Resistance index (RI) [3]: 31.5; Resistance index (RI) ([3]; listed as Au3^S): 29.2; Resistance index (RI) ([3]; listed as Au3^Se): 3.4 |
| CC(=O)OC[C@H]1O[C@@H]([S-])[C@H](OC(C)=O)[C@@H](OC(C)=O)[C@@H]1OC(C)=O.CCP(CC)CC.[Au+] [Auranofin, auranofin, reference compound] |  |  |  | 0.1 ± 0.1 µM | 0.4 ± 0.1 µM | 1.9 ± 0.4 µM | Resistance index (RI) [3]: 20.6 |
| N.N.[Cl][Pt][Cl] [Cisplatin, cisplatin, reference compound] |  |  |  | 0.4 ± 0.1 µM | 1.5 ± 0.2 µM | 8 ± 5 µM | Degree of inhibition of DNA synthesis [5]: 62%; IC50 ([3]; PrestoBlue, listed as cisplatin): 8.4 ± 4.6 µM |
| Cn1cc[n+](C)[c]1[Pt-2]([I])([I])[n+]1ccccc1 [Pt1^NMe] |  |  |  | 2.9 ± 0.2 µM | 4 ± 1 µM | 2.8 ± 0.7 µM | Degree of inhibition of DNA synthesis [5]: 29%; logPOW [4]: 1.3 ± 0.6; IC50 [6]: ~3 µM; Resistance index (RI) [3]: 1.0 |
| C[n+]1cco[c]1[Pt-2]([I])([I])[n+]1ccccc1 [Pt1^O] |  |  |  | 8 ± 2 µM | 18 ± 6 µM | 16 ± 4 µM | Degree of inhibition of DNA synthesis [5]: 38%; Degree of inhibition of DNA synthesis ([5]; listed as Pt1^S): 6%; IC50 ([1]; 72 h, PrestoBlue, listed as Pt1^S): 13 ± 8 µM; IC50 ([2]; PrestoBlue, listed as Pt1^S): 47 ± 23 µM; IC50 ([3]; PrestoBlue, listed as Pt1^S): 30 ± 29 µM; Resistance index (RI) [3]: 2.0; Resistance index (RI) ([3]; listed as Pt1^S): 2.4 |
| [I][Pt-2]([I])([c]1n(Cc2ccccc2)cc[n+]1Cc1ccccc1)[n+]1ccccc1 [Pt2^NBn] |  |  |  | 0.6 ± 0.2 µM | 1.4 ± 0.1 µM | 1.2 ± 0.1 µM | Degree of inhibition of DNA synthesis [5]: 100%; logPOW [4]: 2.1 ± 0.8; IC50 [6]: ~1 µM; Resistance index (RI) [3]: 1.9 |
| Nc1ccn([C@@H]2O[C@H](CO)[C@@H](O)C2(F)F)c(=O)n1 [gemcitabine, reference compound] |  |  |  |  |  |  | inhibition at 1 µM ([5]; Homo sapiens, gemcitabine 1 µM, set as 100%, read-out: Degree of inhibition of DNA synthesis (positive control)): 100% |
| N.N.[Cl][Pt+2][Cl] [transplatin, reference compound] |  |  |  |  |  |  | Degree of inhibition of DNA synthesis [5]: 23% |

From publication PMC12794336, “Unconventional chalcogen-containing azolylidene metal complexes as potential anticancer therapeutics” (Chemical Science, 2025)
